Data set [1] has as its target plasmin (Homo sapiens (Human), UniProt P00747). The data set can be described thus: Determination of enzyme selectivity: plasmin. It counts as biochemical. To be noted: substrate at Km concentration.
Procedure: (§1) Human serine protease enzymes plasmin, thrombin and trypsin were assayed for enzymatic activity using an appropriate fluorogenic substrate. Protease activity was measured by monitoring the accumulation of liberated fluorescence from the substrate over 5 minutes. The linear rate of fluorescence increase per minute was expressed as percentage (%) activity. The Km for the cleavage of each substrate was determined by standard transformation of the Michaelis-Menten equation.
Data set [2] is described as follows: Intrinsic clearance in rat liver microsomes. It counts as in vitro ADME. To be noted: rat liver microsomes 0.5 mg/mL, 5 μM test compound, 37° C.; read-out: rat liver microsome (Clint μL/min/mg protein). As for the experimental part:
Rat or human liver microsomes (0.5 mg/mL; Corning) were incubated with 5 μM test compound at 37° C. on a shaking platform (150 rpm). Samples were taken at 0, 6, 12, 18, 24 and 60 min and test compound concentrations were determined by LCMS against a calibration curve.

Data set [3] can be described thus: Pharmacokinetics following a single oral dose in male Sprague-Dawley rats. It counts as in vivo. To be noted: rat, single po dose (nominal 10 mg/kg; actual dose per row in column Dose po), 10% DMSO/10% cremophor/80% SWFI, plasma. As for the experimental part: Pharmacokinetic studies of the compounds in Table 13 were performed to assess the pharmacokinetics following a single oral dose in male Sprague-Dawley rats. Two rats were given a single po dose of 5 mL/kg of a nominal 2 mg/mL (10 mg/kg) composition of test compound in vehicle. Following dosing, blood samples were collected over a period of 24 hours. Sample times were 5, 15 and 30 minutes then 1, 2, 4, 6, 8 and 12 hours. Following collection, blood samples were centrifuged and the plasma fraction analysed for concentration of test compound by LCMS.

The target of data set [4] is T1, Human plasma kallikrein (Homo sapiens (Human), UniProt P03952). Put plainly: Determination of the Ki for plasma kallikrein (mixed-model inhibition). It counts as biochemical. To be noted: for Ki: human plasma kallikrein, mixed-model inhibition equation.
Data set [5] deals with thrombin (Homo sapiens (Human), UniProt P00734). The data set can be described thus: Determination of enzyme selectivity: thrombin. It counts as biochemical. To be noted: substrate at Km concentration.
Procedure: as §1
The nature of data set [6]: Predicted plasma clearance (Clp), well-stirred model, human. It counts as in vitro ADME. To be noted: percentage of hepatic blood flow.
A short description of data set [7]: Solubility in water and 0.1N HCl (aq). It counts as physicochemical. The conditions noted are these: thermodynamic from solid, incubated at 1 mg/mL, 37° C. The method, then:
Solubility was determined in water and 0.1N HCl (aq). Test compounds were incubated at 1 mg/mL for 24 hrs at 37° C. on a shaking platform (500 rpm). Samples were taken at 1, 4 and 24 hrs and centrifuged at 15,000 g for 10 min. Test compound concentration in the supernatant was determined by LCMS against a standard curve.

A short description of data set [8]: In vitro permeability, Caco-2 model for oral absorption. It counts as in vitro ADME. To be noted: human, apical to basolateral, 50 μM test compound, 37° C. An outline of the steps:
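Caco-2 monolayers grown on collagen inserts for 3 days, with 50 μM compound added apically and incubated 1 hour at 37° C with shaking. Apical-to-basolateral transport measured by LCMS in both compartments. Monolayer integrity checked by TEER before and after, and by Lucifer Yellow flux.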

A short description of data set [9]: Plasma protein binding (PPB), rapid equilibrium dialysis, human plasma. To be noted: 5 μM test compound, dialysis 5 hrs at 37° C. It counts as in vitro ADME.
Data set [10] addresses T1, Human plasma kallikrein. The data set can be described thus: Determination of the IC50 for plasma kallikrein. It counts as biochemical. The conditions noted are these: 25° C., substrate H-DPro-Phe-Arg-AFC; read-out: IC50 (human PKal). As for the experimental part:
Human plasma kallikrein (Protogen) was incubated at 25° C. with the fluorogenic substrate H-DPro-Phe-Arg-AFC and various concentrations of the test compound. Residual enzyme activity (initial rate of reaction) was determined by measuring the change in […] at 410 nm and the IC50 value for the test compound was determined.

Data set [11] has as its target Human FXIa (Homo sapiens (Human), UniProt P03951). The data set can be described thus: Determination of the % inhibition / IC50 for FXIa. It counts as biochemical. To be noted: for inhibition at 40 µM: 40 μM test compound, read-out: % Inhibition @ 40 μM (human FXIa); for IC50: 25° C., substrate Z-Gly-Pro-Arg-AFC. As for the experimental part: FXIa inhibitory activity in vitro was determined using standard published methods (see e.g. Johansen et al., Int. J. Tiss. Reac. 1986, 8, 185; Shori et al., Biochem. Pharmacol., 1992, 43, 1209; Sturzebecher et al., Biol. Chem. Hoppe-Seyler, 1992, 373, 1025). […]

Data set [12] addresses trypsin. The data set can be described thus: Determination of enzyme selectivity: trypsin. It counts as biochemical, human. To be noted: substrate at Km concentration.
Procedure: as §1
[13] abbreviates: simulated gastric fluid, 0.1N HCl (aq), read-out: Solubility 0.1N HCl (aq).
Where [14] appears, read: water, read-out: Solubility Water.

≈ marks a conversion by molar mass, not a printed value. Where “and” joins values, the source holds several entries; their conditions need not be identical. Equal values may be shown once. Read-outs that look alike come from different tables or passages of the source.

Human FXIa, sequence (P03951 388-625): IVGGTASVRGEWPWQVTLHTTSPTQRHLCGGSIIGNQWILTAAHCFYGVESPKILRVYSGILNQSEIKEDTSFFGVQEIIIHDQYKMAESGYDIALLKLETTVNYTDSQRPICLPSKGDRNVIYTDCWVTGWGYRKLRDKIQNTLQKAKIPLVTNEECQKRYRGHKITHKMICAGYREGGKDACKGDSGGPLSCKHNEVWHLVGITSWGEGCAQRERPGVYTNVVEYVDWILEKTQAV
Human FXIa, sequence (P03951 19-387): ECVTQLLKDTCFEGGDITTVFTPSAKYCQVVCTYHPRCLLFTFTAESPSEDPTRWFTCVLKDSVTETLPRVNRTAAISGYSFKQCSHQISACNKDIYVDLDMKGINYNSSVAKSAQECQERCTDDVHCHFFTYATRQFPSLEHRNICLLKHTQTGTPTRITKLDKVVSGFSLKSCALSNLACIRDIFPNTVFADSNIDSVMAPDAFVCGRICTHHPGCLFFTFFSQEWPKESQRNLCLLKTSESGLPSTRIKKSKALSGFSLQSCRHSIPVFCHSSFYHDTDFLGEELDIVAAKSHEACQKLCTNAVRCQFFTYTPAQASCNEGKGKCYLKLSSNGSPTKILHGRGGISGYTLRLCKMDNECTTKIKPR
T1 sequence (P03952 391-638): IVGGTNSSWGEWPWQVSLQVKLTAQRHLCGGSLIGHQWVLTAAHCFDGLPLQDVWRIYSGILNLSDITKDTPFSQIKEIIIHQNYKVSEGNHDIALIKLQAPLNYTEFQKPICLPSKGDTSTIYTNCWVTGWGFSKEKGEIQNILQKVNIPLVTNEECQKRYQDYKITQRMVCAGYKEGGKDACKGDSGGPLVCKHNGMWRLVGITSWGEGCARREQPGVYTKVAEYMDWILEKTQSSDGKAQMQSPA
T1 sequence (P03952 20-390): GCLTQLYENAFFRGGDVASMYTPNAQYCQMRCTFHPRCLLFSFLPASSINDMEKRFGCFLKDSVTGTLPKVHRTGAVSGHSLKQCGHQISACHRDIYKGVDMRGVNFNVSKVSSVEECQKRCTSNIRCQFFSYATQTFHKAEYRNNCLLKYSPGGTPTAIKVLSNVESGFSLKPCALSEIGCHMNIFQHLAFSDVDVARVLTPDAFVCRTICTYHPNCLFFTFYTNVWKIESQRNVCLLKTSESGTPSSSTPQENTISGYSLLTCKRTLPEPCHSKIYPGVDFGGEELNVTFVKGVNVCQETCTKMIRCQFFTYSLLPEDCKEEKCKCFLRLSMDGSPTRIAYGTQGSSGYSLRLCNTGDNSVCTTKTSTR
plasmin, sequence (P00747 581-810): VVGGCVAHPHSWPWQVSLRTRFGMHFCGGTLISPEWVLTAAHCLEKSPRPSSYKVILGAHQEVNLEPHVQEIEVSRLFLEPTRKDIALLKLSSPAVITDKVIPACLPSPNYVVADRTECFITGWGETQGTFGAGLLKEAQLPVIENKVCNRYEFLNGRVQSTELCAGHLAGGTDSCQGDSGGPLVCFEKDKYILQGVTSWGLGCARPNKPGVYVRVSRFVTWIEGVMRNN
plasmin, sequence (P00747 97-580): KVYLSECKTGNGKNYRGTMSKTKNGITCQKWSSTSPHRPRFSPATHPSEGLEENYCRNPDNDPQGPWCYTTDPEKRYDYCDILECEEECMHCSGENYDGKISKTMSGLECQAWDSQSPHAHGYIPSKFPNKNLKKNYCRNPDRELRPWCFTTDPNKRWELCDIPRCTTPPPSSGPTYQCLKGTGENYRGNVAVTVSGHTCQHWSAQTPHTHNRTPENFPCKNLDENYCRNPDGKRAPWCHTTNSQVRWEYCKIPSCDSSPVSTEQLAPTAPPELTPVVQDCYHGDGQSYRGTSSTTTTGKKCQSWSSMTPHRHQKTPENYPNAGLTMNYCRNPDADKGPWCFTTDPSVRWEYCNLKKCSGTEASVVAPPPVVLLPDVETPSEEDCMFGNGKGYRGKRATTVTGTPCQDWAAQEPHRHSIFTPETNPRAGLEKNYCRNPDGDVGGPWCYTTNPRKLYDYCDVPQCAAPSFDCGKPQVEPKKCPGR

Take `COCc1nn(Cc2ccc(Cn3ccccc3=O)cc2)cc1C(=O)NCc1c(-n2cnnn2)ccc(OC)c1F` [Example 39, N-{[2-Fluoro-3-methoxy-6-(1,2,3,4-tetrazol-1-yl)phenyl]methyl}-3-(methoxymethyl)-1-({4-[(2-oxopyridin-1-yl)methyl]phenyl}methyl)pyrazole-4-carboxamide]: the half-inhibitory concentration (IC50) in data set [1] is 31.2 µM; in data set [5], 19.3 µM; in [10] it was 0.0006 µM; in data set [11], 3.7 µM; in [12], more than 40 µM. Further, the microsomal CLint at 5 μM in data set [2] came out at 19 µL/min/mg. This molecule also showed a maximum concentration (Cmax) in data set [3] of 187 ng/mL. The Tmax in data set [3] was 30 min. The molecule further registered a Ki in data set [4] of 0.00026 µM. The Alpha in data set [4] (parameter of the mixed-model equation indicating mechanism of inhibition) stood at 1.7. Further, the “Predicted in vivo human Clp (% LBF)” value in [6] is listed as 21 % LBF. The results for the solubility in [7] (setting [13]) and in data set [7] (setting [14]) were 19 µg/mL (≈ 34 µM) and 7 µg/mL (≈ 12.5 µM), respectively. For the same molecule, the Papp at 1 h, 50 μM in data set [8] was 6 ×10⁻⁶ cm/s. The molecule also showed a fraction unbound at 5 h, 5 μM in [9] of 0.22. Further, the inhibition at 40 µM in data set [11] was 91%.

`COCc1nn(Cc2cnc(N3CCCC3)nc2)cc1C(=O)NCc1c(-n2cnnn2)ccc(OC)c1F` [Example 79, N-{[2-Fluoro-3-methoxy-6-(1,2,3,4-tetrazol-1-yl)phenyl]methyl}-3-(methoxymethyl)-1-{[2-(pyrrolidin-1-yl)pyrimidin-5-yl]methyl}pyrazole-4-carboxamide]: the IC50 was 12 µM in [1]; 7.31 µM in [5]; 0.0015 µM in data set [10]; 0.127 µM in [11]; more than 40 µM in data set [12]. For the same molecule, in data set [2], the microsomal CLint at 5 μM amounted to 23 µL/min/mg. In data set [3], this molecule registered a Cmax of 807 ng/mL. The Tmax in data set [3] was 45 min. In addition, the Ki in data set [4] was 0.00038 µM and 0.00023 µM. For the same molecule, the “Predicted in vivo human Clp (% LBF)” value in data set [6] is recorded as 1 % LBF. For the same molecule, the solubility in data set [7] (setting [13]) was 924 µg/mL (≈ 1770 µM); in data set [7] (setting [14]) it was 93 µg/mL (≈ 178 µM). The Papp at 1 h, 50 μM in [8] was 19 ×10⁻⁶ cm/s. In data set [9], this molecule showed a fraction unbound at 5 h, 5 μM of 0.09. Besides, in [11], the inhibition at 40 µM was found to be 96%.

Source of the values: patent US11180484B2, “Pyrazole derivatives as plasma kallikrein inhibitors” (KALVISTA PHARMACEUTICALS LIMITED, priority 2016, dated 2021).
